Reference: patent US6548543B1, “Remedies or preventives containing cyclopentenone compounds as the active ingredient” (Takara Shuzo Co., Ltd., priority 1998, dated 2003)

Columns and labels:
[1] = tested on: spleen lymphocytes stimulated with Ehrlich ascites carcinoma cells; experiment: Cancer cell-specific proliferation of spleen lymphocytes from treated tumor-bearing mice; format: in vivo, ddY mice; conditions: for 3H-thymidine uptake: 10 mg/kg intraperitoneal
Experimental: ddY mice (female, 7 weeks old) were purchased from Japan SLC and pre-bred 1 week before using in experiments.
1×10^6 Ehrlich ascites carcinoma cells were intraperitoneally inoculated to each mouse. 10 mg/kg of cyclopentene, 30 mg/kg of GM or 10 mg/kg of dipropionylcyclopentene was intraperitoneally administered to the mouse on the day after the inoculation. Saline was administered to a control mouse.
(§1) A spleen was taken out from the mouse 10 days after the inoculation with cancer cells, finely minced and suspended in RPMI-1640 medium (Gibco) containing 10% FCS (HyClone) to obtain a single cell suspension. Adhesive cells in the cell suspension adhered to a plastic Petri dish were removed and non-adhesive cells were used as spleen lymphocytes.
The spleen lymphocytes were suspended in RPMI-1640 medium containing 10% FCS at a concentration of 2×10^6/ml. 100 μl/well of the suspension was seeded into a microtiter plate.
Stimulated cells were prepared as follows. Mitomycin C (Kyowa Hakko Kogyo) was added to a concentration of 50 μg/ml to Ehrlich ascites carcinoma cells suspended in RPMI-1640 medium at a concentration of 2×10^6 cells/ml. The cells were treated at 37° C. for 30 minutes, washed twice and then suspended in RPMI-1640 medium containing 10% FCS to prepare stimulated cells at a concentration of 2×10^6 cells/ml. 100 μl of the thus prepared stimulated cells was overlaid onto each well of the plate into which 100 μl/well of the spleen lymphocytes had been added. The plate was incubated at 37° C. for 5 days in a 5% CO2 incubator. 37 kBq of ^3H-thymidine (Daiichi Pure Chemicals) was added to the well to pulse-label the cells on the day before the completion of the cultivation. After cultivation, the cells were harvested on a glass filter to measure the radioactivity.

NK cells = format: in vivo, ddY mice; conditions: mice administered intraperitoneally
Experimental: ddY mice (female, 7 weeks old) were purchased from Japan SLC and pre-bred for 1 week before using in experiments.
1×10^6 Ehrlich ascites carcinoma cells were intraperitoneally inoculated to each mouse. 10 mg/kg of cyclopentenone, 30 mg/kg of GM or 10 mg/kg of dipropionylcyclopentenone was intraperitoneally administered to the mouse on the day after the inoculation. Saline was administered to a control mouse.
as §1, with “medium” for “medium (Gibco)”, “cells” for “cells in the cell suspension”, “removed from the cell suspension” for “removed”, “NK cells.” for “spleen lymphocytes.”
The NK cells were suspended in RPMI-1640 medium containing 10% FCS at a concentration of 6×10^6/ml. 100 μl/well of the suspension was seeded into a microtiter plate.
Target cells were prepared as follows. 3700 kBq of ^51Cr (Amersham) was added to 1×10^6 YAC-1 cells (Dainippon Pharmaceutical). The cells were cultured at 37° C. for 1 hour for labeling. The labeled cells were washed twice and then suspended in RPMI-1640 medium containing 10% FCS at a concentration of 2×10^5 cells/ml. […] The radioactivity (experimental value) was measured using an auto gamma counter.
100 μl of the culture medium was added to the reaction system in place of the NK cells and the radioactivity was measured in order to measure the radioactivity spontaneously released from the target cells (control value).
Furthermore, the radioactivity released into the supernatant when 1% Triton (Nacalai Tesque) was added to the reaction system to lyse the 51Cr-labeled YAC-1 cells was measured in order to measure the total radioactivity contained in the reaction system (total radioactivity value).
The cytotoxicity (%) specifically mediated by the NK cells can be determined according to the following equation.
Cytotoxicity (%)=[(experimental value−control value)/(total radioactivity value−control value)]×100

Mouse leukemia P-388 = experiment: Survival of mice given mouse leukemia P-388; format: in vivo, DBA/2 mouse; conditions: P-388, single dose 10 mg/kg intraperitoneal
Experimental: (1) Mouse leukemia P-388 (1.1×10^6 cells/mouse) was intraperitoneally administered to a 7-weeks old female DBA/2 mouse. Immediately after the administration, a single dose of 10 mg/kg dipropionylcyclopentenone was intraperitoneally administered. On the other hand, saline was intraperitoneally administered to a control group in a similar manner. Survival number of mice, average days of survival and prolongation rate were calculated for 2 groups each consisting of 8 mice.

Mouse solid tumor Meth A = experiment: Mouse solid tumor Meth A, weight of cancer; format: in vivo, BALB/c mouse; conditions: subcutaneous at tumor site for successive 5 days, after 2 weeks
Experimental: (2) Mouse solid tumor Meth A (2×10^6 cells/mouse) was subcutaneously injected into a back of a 8-weeks old female BALB/c mouse. Subsequently, dipropionylcyclopentenone was subcutaneously injected at the same site for successive 5 days. Saline was subcutaneously injected to a control group in a similar manner. Each group consisted of 8 mice.
After 2 weeks, the cancerous tissue formed in the back of the mouse was taken out and the weight of the tissue was measured.

[2] = Single oral dose toxicity; format: in vivo; conditions: mouse, oral, single dosage of 100 mg/kg
Experimental: No toxicity is observed when a physiologically effective amount of the cyclopentenone derivative or an optical isomer thereof, or a salt thereof obtained according to the present invention is administered.

With `CCC(=O)OC1C=CC(=O)C1OC(=O)CC` (centres unmarked) as the compound, how does the 3H-thymidine uptake ([1]; no stimulation with cancer cell) read?
The 3H-thymidine uptake was 9250 CPM.

And the 3H-thymidine uptake ([1]; stimulation with cancer cell)?
The 3H-thymidine uptake was 20748 CPM.

What about the “Growth of spleen lymphocytes on stimulation with cancer cells (statement)” value ([1]; mice administered intraperitoneally) of the same compound?
The value was “significantly enhanced”.

And the “Activation of NK cells (statement)” value (NK cells)?
The value was “Activation of NK cells was observed”.

What about the “Average days of survival” value (Mouse leukemia P-388) of the same compound?
The value was 13.9 days.

And the Prolongation rate (Mouse leukemia P-388)?
Its Prolongation rate is 137.0%.

And the Inhibition rate (Mouse solid tumor Meth A)?
The Inhibition rate was 92.3%.

What about the “Mice in which no cancerous tissue was formed” value (Mouse solid tumor Meth A) of the same compound?
Its value is 5 out of 8.

And the “Weight of cancer mean ± SE” value (Mouse solid tumor Meth A)?
The value was 0.05 ± 0.08 g.

What about the “Weight of cancer mean ± SE” value (Mouse solid tumor Meth A; listed as dipropionylcyclopentenone) of the same compound?
The value was 0.05 g.

What about the “Death after single oral administration” value [2] of the same compound?
Its value is “no death was observed”.
